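The compound was tested at five concentrations on cells cultured in 96-well plates, with a 48-hour exposure period. The concentration for 50% growth inhibition is given as GI50.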 The source made the active and inactive calls. Cut-off read from the data, not from the text of the source: active = GI50 up to about 1.1 µM and inactive = higher.
What was measured:
Test in all cases: growth of human tumour cells (NCI), 48 h
A498 = tested on: A498
K562 = tested on: K562
A549 = tested on: A549
OVCAR-3 = tested on: OVCAR-3
786-0 = tested on: 786-0
CAKI-1 = tested on: CAKI-1
PC-3 = tested on: PC-3
MOLT-4 = tested on: MOLT-4
SK-MEL-28 = tested on: SK-MEL-28
BT-549 = tested on: BT-549
NCI-H226 = tested on: NCI-H226
MDA-MB-231 = tested on: MDA-MB-231
NCI-H522 = tested on: NCI-H522
SF-539 = tested on: SF-539
U-251 = tested on: U-251
Malme-3M = tested on: Malme-3M
EKVX = tested on: EKVX
MDA-MB-435 = tested on: MDA-MB-435
HOP-92 = tested on: HOP-92
MDA-N = tested on: MDA-N

SMILES	GI50 (A498)	GI50 (K562)	GI50 (A549)	GI50 (OVCAR-3)	GI50 (786-0)	GI50 (CAKI-1)	GI50 (PC-3)	GI50 (MOLT-4)	GI50 (SK-MEL-28)	GI50 (BT-549)	GI50 (NCI-H226)	GI50 (MDA-MB-231)	GI50 (NCI-H522)	GI50 (SF-539)	GI50 (U-251)	GI50 (Malme-3M)	GI50 (EKVX)	GI50 (MDA-MB-435)	GI50 (HOP-92)	GI50 (MDA-N)
Cc1cc(S(=O)(=O)Nc2n[nH]c(Nc3ccccc3)n2)c(S)cc1Cl	> 10 µM (inactive)	> 10 µM (inactive)	> 10 µM (inactive)	> 10 µM (inactive)	> 10 µM (inactive)	> 10 µM (inactive)	> 10 µM (inactive)	> 10 µM (inactive)	> 10 µM (inactive)	> 10 µM (inactive)	> 10 µM (inactive)	> 10 µM (inactive)	> 10 µM (inactive)	> 10 µM (inactive)	> 10 µM (inactive)	> 10 µM (inactive)	> 10 µM (inactive)	> 10 µM (inactive)	–	–
CCN1CCC(O)(c2ccc(Cl)c(Cl)c2)C(C(=O)c2ccc(Cl)c(Cl)c2)C1 (configuration not stated)	21.5 µM (inactive)	18 µM (inactive)	19.4 µM (inactive)	13.7 µM (inactive)	15.4 µM (inactive)	18.3 µM (inactive)	–	15.1 µM (inactive)	18.2 µM (inactive)	–	21.4 µM (inactive)	–	3.71 µM (inactive)	17.7 µM (inactive)	18 µM (inactive)	18.2 µM (inactive)	18.5 µM (inactive)	–	14.5 µM (inactive)	–
Cc1c(C(=N)N)oc2ccccc12	> 100 µM (inactive)	> 100 µM (inactive)	> 100 µM (inactive)	> 100 µM (inactive)	> 100 µM (inactive)	> 100 µM (inactive)	–	> 100 µM (inactive)	> 100 µM (inactive)	–	> 100 µM (inactive)	–	> 100 µM (inactive)	> 100 µM (inactive)	> 100 µM (inactive)	> 100 µM (inactive)	> 100 µM (inactive)	–	> 100 µM (inactive)	–
N=C1NC2(O)C(=O)c3ccccc3C2(O)N1 (configuration not stated)	> 100 µM (inactive)	> 100 µM (inactive)	> 100 µM (inactive)	> 100 µM (inactive)	> 100 µM (inactive)	> 100 µM (inactive)	–	> 100 µM (inactive)	> 100 µM (inactive)	–	> 100 µM (inactive)	–	> 100 µM (inactive)	> 100 µM (inactive)	> 100 µM (inactive)	> 100 µM (inactive)	> 100 µM (inactive)	–	> 100 µM (inactive)	–
COC(=O)c1ccccc1C1=C([N+](=O)[O-])C(c2cccc(Br)c2)C(C#N)=C(N)O1 (configuration not stated)	–	19.9 µM (inactive)	> 100 µM (inactive)	20.7 µM (inactive)	25.6 µM (inactive)	–	40.6 µM (inactive)	25.4 µM (inactive)	52.6 µM (inactive)	–	> 100 µM (inactive)	73.8 µM (inactive)	13.6 µM (inactive)	61 µM (inactive)	> 100 µM (inactive)	–	36.1 µM (inactive)	22.7 µM (inactive)	21.5 µM (inactive)	44.6 µM (inactive)
CCCNC(=O)N(C)C(=O)N1N=C(c2ccccc2)C1c1ccccc1 (configuration not stated)	> 100 µM (inactive)	49 µM (inactive)	78.9 µM (inactive)	61.7 µM (inactive)	> 100 µM (inactive)	75.3 µM (inactive)	56.9 µM (inactive)	23.7 µM (inactive)	> 100 µM (inactive)	–	> 100 µM (inactive)	> 100 µM (inactive)	62.4 µM (inactive)	> 100 µM (inactive)	89.9 µM (inactive)	39.6 µM (inactive)	> 100 µM (inactive)	95.7 µM (inactive)	62.4 µM (inactive)	95.1 µM (inactive)
Nc1cnc(Nc2cccc3ccccc23)o1	> 10 µM (inactive)	> 10 µM (inactive)	> 10 µM (inactive)	> 10 µM (inactive)	> 10 µM (inactive)	> 10 µM (inactive)	> 10 µM (inactive)	–	> 10 µM (inactive)	–	> 10 µM (inactive)	> 10 µM (inactive)	> 10 µM (inactive)	> 10 µM (inactive)	> 10 µM (inactive)	> 10 µM (inactive)	> 10 µM (inactive)	> 10 µM (inactive)	–	> 10 µM (inactive)
CC12CCC([C@H](N3CCOCC3)/C1=N\OCCN1CCCC1)C2(C)C (some centres not stated)	> 100 µM (inactive)	> 100 µM (inactive)	> 100 µM (inactive)	> 100 µM (inactive)	> 100 µM (inactive)	> 100 µM (inactive)	–	> 100 µM (inactive)	> 100 µM (inactive)	–	> 100 µM (inactive)	–	> 100 µM (inactive)	> 100 µM (inactive)	> 100 µM (inactive)	> 100 µM (inactive)	> 100 µM (inactive)	–	> 100 µM (inactive)	–
CN(C)P(=O)(/C(N)=N/Nc1ccc([N+](=O)[O-])cc1)N(C)C	0.558 µM (active)	> 100 µM (inactive)	> 100 µM (inactive)	> 100 µM (inactive)	> 100 µM (inactive)	> 100 µM (inactive)	–	> 100 µM (inactive)	> 100 µM (inactive)	–	> 100 µM (inactive)	–	48 µM (inactive)	> 100 µM (inactive)	> 100 µM (inactive)	> 100 µM (inactive)	> 100 µM (inactive)	–	41.4 µM (inactive)	–
CC12CCC(=O)N1c1cccnc1N2 (configuration not stated)	> 100 µM (inactive)	> 100 µM (inactive)	> 100 µM (inactive)	> 100 µM (inactive)	> 100 µM (inactive)	> 100 µM (inactive)	–	> 100 µM (inactive)	> 100 µM (inactive)	–	> 100 µM (inactive)	–	> 100 µM (inactive)	> 100 µM (inactive)	> 100 µM (inactive)	> 100 µM (inactive)	> 100 µM (inactive)	–	> 100 µM (inactive)	–
O=C(CC(NC(=O)OCc1ccccc1)C(=O)NC1Cc2ccccc2C1=O)OCc1ccccc1 (configuration not stated)	–	> 100 µM (inactive)	> 100 µM (inactive)	> 100 µM (inactive)	> 100 µM (inactive)	> 100 µM (inactive)	> 100 µM (inactive)	> 100 µM (inactive)	> 100 µM (inactive)	> 100 µM (inactive)	> 100 µM (inactive)	–	> 100 µM (inactive)	> 100 µM (inactive)	> 100 µM (inactive)	> 100 µM (inactive)	> 100 µM (inactive)	> 100 µM (inactive)	–	> 100 µM (inactive)
O=c1c2nc[nH]c2n(-c2ccccc2)c(=S)n1-c1ccccc1	> 100 µM (inactive)	> 100 µM (inactive)	> 100 µM (inactive)	> 100 µM (inactive)	> 100 µM (inactive)	> 100 µM (inactive)	> 100 µM (inactive)	> 100 µM (inactive)	> 100 µM (inactive)	> 100 µM (inactive)	> 100 µM (inactive)	> 100 µM (inactive)	> 100 µM (inactive)	> 100 µM (inactive)	> 100 µM (inactive)	–	> 100 µM (inactive)	> 100 µM (inactive)	–	–
CCOC(=O)C(NC(=O)Nc1ccc(Cl)c(Cl)c1)C(F)(F)F (configuration not stated)	> 100 µM (inactive)	92.5 µM (inactive)	> 100 µM (inactive)	–	> 100 µM (inactive)	–	> 100 µM (inactive)	> 100 µM (inactive)	> 100 µM (inactive)	45.2 µM (inactive)	–	–	–	> 100 µM (inactive)	> 100 µM (inactive)	–	77.1 µM (inactive)	87.1 µM (inactive)	–	> 100 µM (inactive)
CCOC(=O)c1sc2c(c1OC(=O)c1ccccc1)c(=O)n(-c1ccccc1)c(=S)n2-c1ccccc1	15.5 µM (inactive)	28.4 µM (inactive)	26.1 µM (inactive)	24.5 µM (inactive)	15.9 µM (inactive)	97.9 µM (inactive)	33.7 µM (inactive)	42.8 µM (inactive)	32.2 µM (inactive)	–	> 100 µM (inactive)	28.5 µM (inactive)	23.6 µM (inactive)	20.6 µM (inactive)	20.3 µM (inactive)	21.7 µM (inactive)	63.8 µM (inactive)	20.9 µM (inactive)	25.7 µM (inactive)	–
CC1=Nc2ccccc2S(=O)(=O)N1	> 100 µM (inactive)	> 100 µM (inactive)	> 100 µM (inactive)	> 100 µM (inactive)	> 100 µM (inactive)	> 100 µM (inactive)	–	> 100 µM (inactive)	> 100 µM (inactive)	–	> 100 µM (inactive)	–	> 100 µM (inactive)	> 100 µM (inactive)	> 100 µM (inactive)	> 100 µM (inactive)	> 100 µM (inactive)	–	> 100 µM (inactive)	–
CN1CCN(Cn2nc(-c3ccccc3)n(/N=C/c3ccc(-c4ccc(Cl)cc4Cl)o3)c2=S)CC1	26 µM (inactive)	2.39 µM (inactive)	–	11.7 µM (inactive)	13.1 µM (inactive)	7.36 µM (inactive)	8.43 µM (inactive)	0.0713 µM (active)	12.1 µM (inactive)	–	20 µM (inactive)	13.9 µM (inactive)	28.2 µM (inactive)	13.5 µM (inactive)	5.25 µM (inactive)	–	30.1 µM (inactive)	11.4 µM (inactive)	8.95 µM (inactive)	13.4 µM (inactive)
O=C(CCN1CCN(c2ccccc2)CC1)N1CCc2c([nH]c3ccccc23)C1c1cccnc1 (configuration not stated)	19.1 µM (inactive)	15.9 µM (inactive)	14.8 µM (inactive)	16.7 µM (inactive)	15.4 µM (inactive)	18.1 µM (inactive)	–	12 µM (inactive)	15.7 µM (inactive)	–	25.9 µM (inactive)	–	15.4 µM (inactive)	18.7 µM (inactive)	16.4 µM (inactive)	19.1 µM (inactive)	16.9 µM (inactive)	–	18.5 µM (inactive)	–

From ChEMBL document CHEMBL1201862, “PubChem BioAssay data set” (2004)
